Here are results for eleven molecules from ChEMBL document CHEMBL4340516, “Synthesis and antitumor activity of novel steroidal imidazolium salt derivatives” (Eur J Med Chem, 2019).

Common to all, as to format: functional, cell-based
One experiment relates to MCF7. The experiment in a line: Antiproliferative activity against human MCF7 cells assessed as reduction in cell viability incubated for 48 hrs by MTS assay. Particulars: MCF7, 48 h. Background: Formazan colour is commonly taken as a measure of viable cells.
The subject of another experiment is A549. The experiment is described as follows: Antiproliferative activity against human A549 cells assessed as reduction in cell viability incubated for 48 hrs by MTS assay. Particulars: A549, 48 h.
The test system of another experiment is SMMC-7721. The experiment in a line: Antiproliferative activity against human SMMC7721 cells assessed as reduction in cell viability incubated for 48 hrs by MTS assay. Particulars: SMMC-7721, 48 h.
The next experiment relates to HL-60. The experiment in a line: Antiproliferative activity against human HL60 cells assessed as reduction in cell viability incubated for 48 hrs by MTS assay. Particulars: HL-60, 48 h.
A further experiment has as its system SW480. The experiment in a line: Antiproliferative activity against human SW480 cells assessed as reduction in cell viability incubated for 48 hrs by MTS assay. The settings on record: SW480, 48 h.

pIC50: −log10 of the molar value.

As a reminder, the pIC50 is the IC50 on a negative log10 scale, so that one unit is a factor of ten. Take `CC(C)CCC[C@@H](C)[C@H]1CC[C@H]2[C@@H]3CC=C4C[C@H](n5c[n+](CC(=O)c6ccccc6)c6ccccc65)CC[C@]4(C)[C@H]3CC[C@]12C`: the pIC50 with MCF7 is 5.14; in the experiment on A549 it was 5.12; in the experiment on SMMC-7721 it was 5.78; in the experiment on HL-60 it was 6.06; with SW480 it was 4.99.

Regarding `C[C@@H]1CC[C@@]2(OC1)O[C@H]1C[C@H]3[C@@H]4CC=C5C[C@@H](n6cc[n+](Cc7ccccc7Br)c6)CC[C@]5(C)[C@H]4CC[C@]3(C)[C@H]1[C@@H]2C`, the pIC50 is 5.73 with MCF7; 5.52 with A549; 5.64 with SMMC-7721; 6.04 with HL-60; 5.27 in the experiment with SW480.

In the case of `C[C@@H]1CC[C@@]2(OC1)O[C@H]1C[C@H]3[C@@H]4CC=C5C[C@H](n6c[n+](CC(=O)c7cccc(Br)c7)c7ccccc76)CC[C@]5(C)[C@H]4CC[C@]3(C)[C@H]1[C@@H]2C`, the negative-log IC50 (pIC50) in the experiment with MCF7 is 5.82; in the experiment on A549, 5.75; with SMMC-7721, 5.76; with HL-60, 5.87; in the experiment with SW480, 5.76.

As for `C[C@@H]1CC[C@@]2(OC1)O[C@H]1C[C@H]3[C@@H]4CC=C5C[C@H](n6cnc7ccccc76)CC[C@]5(C)[C@H]4CC[C@]3(C)[C@H]1[C@@H]2C`, the pIC50 in the experiment on MCF7, in the experiment with A549, in the experiment with SMMC-7721, with HL-60 and in the experiment on SW480 was less than 4.70 in each case.

As to `COc1ccc(C(=O)C[n+]2ccn([C@H]3CC[C@@]4(C)C(=CC[C@H]5[C@@H]6C[C@@H]7O[C@]8(CC[C@@H](C)CO8)[C@@H](C)[C@@H]7[C@@]6(C)CC[C@@H]54)C3)c2)cc1`, the negative-log IC50 (pIC50) with MCF7 is 5.71; with A549, 5.92; in the experiment on SMMC-7721, 5.79; with HL-60, 6.03; in the experiment with SW480, 5.38.

With `C[C@]12CC[C@H]3[C@@H](CC=C4C[C@@H](O)CC[C@@]43C)[C@@H]1CC[C@@H]2n1cc[n+](CC(=O)c2ccccc2)c1`, the negative-log IC50 (pIC50) in the experiment with MCF7, in the experiment on A549, with SMMC-7721, in the experiment with HL-60 and in the experiment with SW480 was less than 4.70 throughout.

Regarding `Cc1cc2ncn([C@@H]3CC[C@@]4(C)C(=CC[C@H]5[C@@H]6CC[C@H]([C@H](C)CCCC(C)C)[C@@]6(C)CC[C@@H]54)C3)c2cc1C`, the pIC50 with MCF7 is less than 4.70; in the experiment with A549 it was less than 4.70; in the experiment with SMMC-7721, less than 4.70; in the experiment with HL-60, 6.74; with SW480, less than 4.70.

As to `CC(=O)O[C@H]1CC[C@@]2(C)C(=CC[C@H]3[C@@H]4CC[C@H](n5cc[n+](CC(=O)c6ccccc6)c5)[C@@]4(C)CC[C@@H]32)C1`, the pIC50 is 5.04 in the experiment with MCF7; less than 4.70 in the experiment with A549; 4.92 in the experiment with SMMC-7721; 5.19 with HL-60; 4.95 with SW480.

Take `CC(=O)O[C@H]1CC[C@@]2(C)C(=CC[C@H]3[C@@H]4CC[C@H](n5cc[n+](Cc6ccc7ccccc7c6)c5)[C@@]4(C)CC[C@@H]32)C1`: the negative-log IC50 (pIC50) with MCF7 is 5.60; with A549, 5.32; with SMMC-7721, 5.61; in the experiment with HL-60 it was 5.91; in the experiment on SW480, 5.25.

In the case of `c1ccc2[nH]cnc2c1` [BENZIMIDAZOLE], the negative logarithm of the IC50 (pIC50) in the experiment with MCF7, in the experiment on A549, with SMMC-7721, in the experiment on HL-60 and in the experiment on SW480 was less than 4.70 each time.

Turning to `C[C@@H]1CC[C@@]2(OC1)O[C@H]1C[C@H]3[C@@H]4CC=C5C[C@@H](n6ccnc6)CC[C@]5(C)[C@H]4CC[C@]3(C)[C@H]1[C@@H]2C`, the pIC50 was 4.84 in the experiment on MCF7; 5.00 with A549; 5.01 in the experiment with SMMC-7721; 5.02 with HL-60; less than 4.70 in the experiment with SW480.
